Columns and labels:
JAK1 = JAK1 (Homo sapiens (Human), UniProt P23458); assay: Jak Biochemical HTRF Assay, JAK1; details: HTRF biochemical assay, GST-tagged catalytic domain; top concentration tested […]; read-out: JAK1 IC50
Description: (§1) Jak Biochemical HTRF Assay Protocol
(§2) Subsequent reagent additions employed an Agilent Bravo.

JAK2 = JAK2 (Homo sapiens (Human), UniProt O60674); assay: Jak Biochemical HTRF Assay, JAK2; details: HTRF biochemical assay, GST-tagged catalytic domain; top concentration tested […]
JAK2, sequence (O60674 849-1124): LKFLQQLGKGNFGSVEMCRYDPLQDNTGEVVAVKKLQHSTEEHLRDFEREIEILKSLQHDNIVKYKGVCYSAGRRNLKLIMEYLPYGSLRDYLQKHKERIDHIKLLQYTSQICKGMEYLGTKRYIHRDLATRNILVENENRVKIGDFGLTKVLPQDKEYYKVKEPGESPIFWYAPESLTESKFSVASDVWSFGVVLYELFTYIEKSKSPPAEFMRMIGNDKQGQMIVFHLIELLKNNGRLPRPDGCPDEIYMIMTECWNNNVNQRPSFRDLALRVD
Description: as §1, §2

JAK1, sequence (P23458 875-1153): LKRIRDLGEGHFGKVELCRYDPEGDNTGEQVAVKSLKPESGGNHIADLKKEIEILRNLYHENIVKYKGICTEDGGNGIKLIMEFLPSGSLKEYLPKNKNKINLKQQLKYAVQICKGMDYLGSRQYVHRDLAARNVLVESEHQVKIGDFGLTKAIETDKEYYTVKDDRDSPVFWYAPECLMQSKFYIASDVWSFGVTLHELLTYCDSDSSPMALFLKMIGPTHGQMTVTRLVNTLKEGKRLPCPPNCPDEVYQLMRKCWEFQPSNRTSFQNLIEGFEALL

| SMILES | IC50 (JAK1) [nM] | IC50 (JAK2) [nM] |
| --- | --- | --- |
| N#CCC1(n2cc(C(N)=O)c(Nc3ccc(F)cc3)n2)CCN(c2cccc(C3CC3)c2)CC1 [Example 3-17, 1-[4-(cyanomethyl)-1-(3-cyclopropylphenyl)piperidin-4-yl]-3-[(4-fluorophenyl)amino]-1H-pyrazole-4-carboxamide] | 32 | 780 |
| N#CCC1(n2cc(C(N)=O)c(Nc3ccc(F)cc3)n2)CCN(c2cccc(C#N)n2)CC1 [Example 3-18, 1-[4-(cyanomethyl)-1-(6-cyanopyridin-2-yl)piperidin-4-yl]-3-[(4-fluorophenyl)amino]-1H-pyrazole-4-carboxamide] | 3 | 89 |
| N#CCC1(n2cc(C(N)=O)c(Nc3ccc(F)cc3)n2)CCN(c2ccc(OC(F)F)cn2)CC1 [Example 3-19, 1-{4-(cyanomethyl)-1-[5-(difluoromethoxy)pyridin-2-yl]piperidin-4-yl}-3-[(4-fluorophenyl)amino]-1H-pyrazole-4-carboxamide] | 0.6 | 18 |
| N#CCC1(n2cc(C(N)=O)c(Nc3ccc(F)cc3)n2)CCN(c2cncc(C#N)c2)CC1 [Example 3-21, 1-[4-(cyanomethyl)-1-(5-cyanopyridin-3-yl)piperidin-4-yl]-3-[(4-fluorophenyl)amino]-1H-pyrazole-4-carboxamide] | 0.6 | 20 |
| COc1cccnc1N1CCC(CC#N)(n2cc(C(N)=O)c(Nc3ccc(F)cc3)n2)CC1 [Example 3-23, 1-[4-(cyanomethyl)-1-(3-methoxypyridin-2-yl)piperidin-4-yl]-3-[(4-fluorophenyl)amino]-1H-pyrazole-4-carboxamide] | 33 | 559 |
| COc1ncc(N2CCC(CC#N)(n3cc(C(N)=O)c(Nc4ccc(F)cc4)n3)CC2)cn1 [Example 3-25, 1-[4-(cyanomethyl)-1-(2-methoxypyrimidin-5-yl)piperidin-4-yl]-3-[(4-fluorophenyl)amino]-1H-pyrazole-4-carboxamide] | 0.7 | 21 |
| N#CCC1(n2cc(C(N)=O)c(Nc3ccc(F)cc3)n2)CCN(c2ccc(C#N)cc2)CC1 [Example 3-26, 1-[4-(cyanomethyl)-1-(4-cyanophenyl)piperidin-4-yl]-3-[(4-fluorophenyl)amino]-1H-pyrazole-4-carboxamide] | 0.2 | 3 |
| N#CCC1(n2cc(C(N)=O)c(Nc3ccc(F)cc3)n2)CCN(c2ccc(C(F)(F)F)nc2)CC1 [Example 3-28, 1-{4-(cyanomethyl)-1-[6-(trifluoromethyl)pyridin-3-yl]piperidin-4-yl}-3-[(4-fluorophenyl)amino]-1H-pyrazole-4-carboxamide] | 0.6 | 26 |
| Cc1ncccc1N1CCC(CC#N)(n2cc(C(N)=O)c(Nc3ccc(F)cc3)n2)CC1 [Example 3-29, 1-[4-(cyanomethyl)-1-(2-methylpyridin-3-yl)piperidin-4-yl]-3-[(4-fluorophenyl)amino]-1H-pyrazole-4-carboxamide] | 9 | 209 |
| N#CCC1(n2cc(C(N)=O)c(Nc3ccc(F)cc3)n2)CCN(c2cccnc2)CC1 [Example 3-30, 1-[4-(cyanomethyl)-1-pyridin-3-ylpiperidin-4-yl]-3-[(4-fluorophenyl)amino]-1H-pyrazole-4-carboxamide] | 0.3 | 6 |
| Cc1ccnc(N2CCC(CC#N)(n3cc(C(N)=O)c(Nc4ccc(F)cc4)n3)CC2)c1 [Example 3-31, 1-[4-(cyanomethyl)-1-(4-methylpyridin-2-yl)piperidin-4-yl]-3-[(4-fluorophenyl)amino]-1H-pyrazole-4-carboxamide] | 1 | 44 |
| Cc1ccc(F)cc1N1CCC(CC#N)(n2cc(C(N)=O)c(Nc3ccc(F)cc3)n2)CC1 [Example 3-32, 1-[4-(cyanomethyl)-1-(5-fluoro-2-methylphenyl)piperidin-4-yl]-3-[(4-fluorophenyl)amino]-1H-pyrazole-4-carboxamide] | 204 | > 1500 |
| Cc1ccncc1N1CCC(CC#N)(n2cc(C(N)=O)c(Nc3ccc(F)cc3)n2)CC1 [Example 3-33, 1-[4-(cyanomethyl)-1-(4-methylpyridin-3-yl)piperidin-4-yl]-3-[(4-fluorophenyl)amino]-1H-pyrazole-4-carboxamide] | 7 | 102 |
| Cc1ccc(N2CCC(CC#N)(n3cc(C(N)=O)c(Nc4ccc(F)cc4)n3)CC2)cc1F [Example 3-34, 1-[4-(cyanomethyl)-1-(3-fluoro-4-methylphenyl)piperidin-4-yl]-3-[(4-fluorophenyl)amino]-1H-pyrazole-4-carboxamide] | 5 | 215 |
| COC(=O)c1cccc(N2CCC(CC#N)(n3cc(C(N)=O)c(Nc4ccc(F)cc4)n3)CC2)n1 [Example 3-35, methyl 6-[4-{4-carbamoyl-3-[(4-fluorophenyl)amino]-1H-pyrazol-1-yl}-4-(cyanomethyl)piperidin-1-yl]pyridine-2-carboxylate] | 19 | 280 |
| CCOc1ccc(N2CCC(CC#N)(n3cc(C(N)=O)c(Nc4ccc(F)cc4)n3)CC2)cn1 [Example 3-36, 1-[4-(cyanomethyl)-1-(6-ethoxypyridin-3-yl)piperidin-4-yl]-3-[(4-fluorophenyl)amino]-1H-pyrazole-4-carboxamide] | 3 | 46 |
| COc1cncc(N2CCC(CC#N)(n3cc(C(N)=O)c(Nc4ccc(F)cc4)n3)CC2)c1 [Example 3-37, 1-[4-(cyanomethyl)-1-(5-methoxypyridin-3-yl)piperidin-4-yl]-3-[(4-fluorophenyl)amino]-1H-pyrazole-4-carboxamide] | 0.6 | 17 |
| N#CCC1(n2cc(C(N)=O)c(Nc3ccc(F)cc3)n2)CCN(c2ccc(F)cc2)CC1 [Example 3-38, 1-[4-(cyanomethyl)-1-(4-fluorophenyl)piperidin-4-yl]-3-[(4-fluorophenyl)amino]-1H-pyrazole-4-carboxamide] | 2 | 37 |
| Cc1ccc(N2CCC(CC#N)(n3cc(C(N)=O)c(Nc4ccc(F)cc4)n3)CC2)cc1 [Example 3-39, 1-[4-(cyanomethyl)-1-(4-methylphenyl)piperidin-4-yl]-3-[(4-fluorophenyl)amino]-1H-pyrazole-4-carboxamide] | 4 | 117 |
| N#CCC1(n2cc(C(N)=O)c(Nc3ccc(F)cc3)n2)CCN(c2cc(F)cc(F)c2)CC1 [Example 3-40, 1-[4-(cyanomethyl)-1-(3,5-difluorophenyl)piperidin-4-yl]-3-[(4-fluorophenyl)amino]-1H-pyrazole-4-carboxamide] | 3 | 67 |
| COc1ccccc1N1CCC(CC#N)(n2cc(C(N)=O)c(Nc3ccc(F)cc3)n2)CC1 [Example 3-41, 1-[4-(cyanomethyl)-1-(2-methoxyphenyl)piperidin-4-yl]-3-[(4-fluorophenyl)amino]-1H-pyrazole-4-carboxamide] | 213 | > 1500 |
| Cc1cc(N2CCC(CC#N)(n3cc(C(N)=O)c(Nc4ccc(F)cc4)n3)CC2)ccc1F [Example 3-42, 1-[4-(cyanomethyl)-1-(4-fluoro-3-methylphenyl)piperidin-4-yl]-3-[(4-fluorophenyl)amino]-1H-pyrazole-4-carboxamide] | 12 | 287 |
| Cc1cccc(N2CCC(CC#N)(n3cc(C(N)=O)c(Nc4ccc(F)cc4)n3)CC2)c1F [Example 3-43, 1-[4-(cyanomethyl)-1-(2-fluoro-3-methylphenyl)piperidin-4-yl]-3-[(4-fluorophenyl)amino]-1H-pyrazole-4-carboxamide] | 10 | 295 |
| N#CCC1(n2cc(C(N)=O)c(Nc3ccc(F)cc3)n2)CCN(c2cc(F)ccn2)CC1 [Example 3-44, 1-[4-(cyanomethyl)-1-(4-fluoropyridin-2-yl)piperidin-4-yl]-3-[(4-fluorophenyl)amino]-1H-pyrazole-4-carboxamide] | 0.2 | 6 |
| N#CCC1(n2cc(C(N)=O)c(Nc3ccc(F)cc3)n2)CCN(c2ccc(F)c(F)c2)CC1 [Example 3-45, 1-[4-(cyanomethyl)-1-(3,4-difluorophenyl)piperidin-4-yl]-3-[(4-fluorophenyl)amino]-1H-pyrazole-4-carboxamide] | 2 | 70 |
| N#CCC1(n2cc(C(N)=O)c(Nc3ccc(F)cc3)n2)CCN(c2ccncc2)CC1 [Example 3-46, 1-[4-(cyanomethyl)-1-pyridin-4-ylpiperidin-4-yl]-3-[(4-fluorophenyl)amino]-1H-pyrazole-4-carboxamide] | 3 | 78 |
| Cc1ncncc1N1CCC(CC#N)(n2cc(C(N)=O)c(Nc3ccc(F)cc3)n2)CC1 [Example 3-47, 1-[4-(cyanomethyl)-1-(4-methylpyrimidin-5-yl)piperidin-4-yl]-3-[(4-fluorophenyl)amino]-1H-pyrazole-4-carboxamide] | 13 | 181 |
| Cc1cncc(N2CCC(CC#N)(n3cc(C(N)=O)c(Nc4ccc(F)cc4)n3)CC2)c1 [Example 3-48, 1-[4-(cyanomethyl)-1-(5-methylpyridin-3-yl)piperidin-4-yl]-3-[(4-fluorophenyl)amino]-1H-pyrazole-4-carboxamide] | 1 | 26 |
| CC(C)(O)Cc1cccc(N2CCC(CC#N)(n3cc(C(N)=O)c(Nc4ccc(F)cc4)n3)CC2)n1 [Example 3-49, 1-{4-(cyanomethyl)-1-[6-(2-hydroxy-2-methylpropyl)pyridin-2-yl]piperidin-4-yl}-3-[(4-fluorophenyl)amino]-1H-pyrazole-4-carboxamide] | 5 | 147 |
| N#CCC1(n2cc(C(N)=O)c(Nc3ccc(F)cc3)n2)CCN(c2cccc(CF)n2)CC1 [Example 3-50, 1-{4-(cyanomethyl)-1-[6-(fluoromethyl)pyridin-2-yl]piperidin-4-yl}-3-[(4-fluorophenyl)amino]-1H-pyrazole-4-carboxamide] | 3 | 39 |

From US9328099B2, “Cyanomethylpyrazole carboxamides as janus kinase inhibitors” (Merck Sharp & Dohme Corp., priority 2011, dated 2016)
